{
  "source": "paper PMC4648050",
  "about": "“Discovery of Inhibitors of Trypanosoma brucei by Phenotypic Screening of a Focused Protein Kinase Library” (Chemmedchem, 2015)",
  "key": {"PHK": {"tested_on": "PHK", "assay": "Kinase panel: PHK", "assay_type": "biochemical, human/mammalian", "settings": "compound at 10 μM", "method": "(§1) The DDU kinase-focused compound set contains lead-like scaffolds that are designed to target protein kinases; they have kinase hinge binding motifs. Four of the 1H-imidazopyrazinones were screened against a human/mammalian kinase panel at the University of Dundee (http://www.kinase-screen.mrc.ac.uk) at a concentration of 10 μM. At the time of testing the panel contained 79 mammalian kinases selected to provide a broad coverage of the mammalian kinome (∼500 kinases in the human genome).[3] None of the compounds were active against any of the kinases at 10 μM."}, "IKKb": {"target": "T1, IKKb (Homo sapiens, UniProt O14920)", "T1 sequence (O14920 1-756)": "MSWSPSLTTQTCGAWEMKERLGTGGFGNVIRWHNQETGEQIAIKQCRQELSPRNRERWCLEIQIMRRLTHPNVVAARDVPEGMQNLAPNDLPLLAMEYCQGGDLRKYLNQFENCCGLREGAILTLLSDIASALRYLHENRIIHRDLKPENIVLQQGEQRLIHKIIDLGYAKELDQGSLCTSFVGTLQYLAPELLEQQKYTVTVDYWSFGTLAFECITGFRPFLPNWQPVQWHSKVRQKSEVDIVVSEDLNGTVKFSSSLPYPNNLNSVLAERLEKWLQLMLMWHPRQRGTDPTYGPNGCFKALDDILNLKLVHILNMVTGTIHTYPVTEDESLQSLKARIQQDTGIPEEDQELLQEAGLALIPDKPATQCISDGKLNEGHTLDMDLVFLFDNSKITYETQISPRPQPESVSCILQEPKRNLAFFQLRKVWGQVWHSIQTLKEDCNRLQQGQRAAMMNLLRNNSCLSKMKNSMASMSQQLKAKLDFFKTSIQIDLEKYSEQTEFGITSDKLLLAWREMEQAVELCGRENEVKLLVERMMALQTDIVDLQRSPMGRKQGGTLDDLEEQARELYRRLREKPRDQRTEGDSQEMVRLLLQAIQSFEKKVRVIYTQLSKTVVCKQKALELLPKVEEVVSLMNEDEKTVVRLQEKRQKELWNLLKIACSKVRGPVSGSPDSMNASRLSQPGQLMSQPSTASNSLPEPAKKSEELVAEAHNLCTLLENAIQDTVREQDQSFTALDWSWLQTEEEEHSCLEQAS", "assay": "Kinase panel: IKKb", "assay_type": "biochemical, human/mammalian", "settings": "compound at 10 μM, read-out: % of activity respect of the control", "method": "as §1"}, "[1]": {"assay": "Intrinsic clearance in mouse liver microsomes", "assay_type": "in vitro ADME", "settings": "mouse hepatic microsomes, 0.5 μM compound", "method": "Intrinsic clearance experiments: Test compound (0.5 μM) was incubated with female CD1 mouse liver microsomes (Xenotech LLC; 0.5 mg mL^−1 50 mM potassium phosphate buffer, pH 7.4), and the reaction started with the addition of excess NADPH (8 mg mL^−1 50 mM potassium phosphate buffer, pH 7.4). Immediately, at t0, then at 3, 6, 9, 15, and 30 min an aliquot (50 μL) of the incubation mixture was removed and mixed with MeCN (100 μL) to stop the reaction. Internal standard was added to all samples, the samples were centrifuged to sediment precipitated protein, and the plates were then sealed prior to UPLC–MS/MS analysis using a Quattro Premier XE instrument (Waters Corp., USA). XLfit (IDBS, UK) was used to calculate the exponential decay and consequently the rate constant (k) from the ratio of peak area of test compound to internal standard at each time point. The rate of intrinsic clearance [CLint, mL min^−1 (g liver)^−1] of each test compound was then calculated with Equation (3): […]\nin which V [mL (mg protein)^−1] is the incubation volume per mg protein added, and microsomal protein yield is taken as 52.5 mg protein per gram of liver. Verapamil (0.5 μM) was used as a positive control to confirm acceptable assay performance."}, "NEK6": {"target": "NEK6 (Homo sapiens, UniProt Q9HC98)", "sequence (Q9HC98 whole entry)": "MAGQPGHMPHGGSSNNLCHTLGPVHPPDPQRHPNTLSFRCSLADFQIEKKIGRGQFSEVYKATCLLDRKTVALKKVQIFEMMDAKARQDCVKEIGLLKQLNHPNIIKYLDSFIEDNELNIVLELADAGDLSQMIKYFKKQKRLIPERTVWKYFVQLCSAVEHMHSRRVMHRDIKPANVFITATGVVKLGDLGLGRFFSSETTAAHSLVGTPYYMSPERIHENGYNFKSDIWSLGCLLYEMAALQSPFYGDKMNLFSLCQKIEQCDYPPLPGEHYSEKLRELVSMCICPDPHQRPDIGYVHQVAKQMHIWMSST", "assay": "Kinase panel: NEK6", "assay_type": "biochemical, human/mammalian", "settings": "compound at 10 μM, read-out: % of activity respect of the control", "method": "as §1"}, "IGF-1R": {"target": "IGF-1R (Homo sapiens, UniProt P08069)", "sequence (P08069 31-1367)": "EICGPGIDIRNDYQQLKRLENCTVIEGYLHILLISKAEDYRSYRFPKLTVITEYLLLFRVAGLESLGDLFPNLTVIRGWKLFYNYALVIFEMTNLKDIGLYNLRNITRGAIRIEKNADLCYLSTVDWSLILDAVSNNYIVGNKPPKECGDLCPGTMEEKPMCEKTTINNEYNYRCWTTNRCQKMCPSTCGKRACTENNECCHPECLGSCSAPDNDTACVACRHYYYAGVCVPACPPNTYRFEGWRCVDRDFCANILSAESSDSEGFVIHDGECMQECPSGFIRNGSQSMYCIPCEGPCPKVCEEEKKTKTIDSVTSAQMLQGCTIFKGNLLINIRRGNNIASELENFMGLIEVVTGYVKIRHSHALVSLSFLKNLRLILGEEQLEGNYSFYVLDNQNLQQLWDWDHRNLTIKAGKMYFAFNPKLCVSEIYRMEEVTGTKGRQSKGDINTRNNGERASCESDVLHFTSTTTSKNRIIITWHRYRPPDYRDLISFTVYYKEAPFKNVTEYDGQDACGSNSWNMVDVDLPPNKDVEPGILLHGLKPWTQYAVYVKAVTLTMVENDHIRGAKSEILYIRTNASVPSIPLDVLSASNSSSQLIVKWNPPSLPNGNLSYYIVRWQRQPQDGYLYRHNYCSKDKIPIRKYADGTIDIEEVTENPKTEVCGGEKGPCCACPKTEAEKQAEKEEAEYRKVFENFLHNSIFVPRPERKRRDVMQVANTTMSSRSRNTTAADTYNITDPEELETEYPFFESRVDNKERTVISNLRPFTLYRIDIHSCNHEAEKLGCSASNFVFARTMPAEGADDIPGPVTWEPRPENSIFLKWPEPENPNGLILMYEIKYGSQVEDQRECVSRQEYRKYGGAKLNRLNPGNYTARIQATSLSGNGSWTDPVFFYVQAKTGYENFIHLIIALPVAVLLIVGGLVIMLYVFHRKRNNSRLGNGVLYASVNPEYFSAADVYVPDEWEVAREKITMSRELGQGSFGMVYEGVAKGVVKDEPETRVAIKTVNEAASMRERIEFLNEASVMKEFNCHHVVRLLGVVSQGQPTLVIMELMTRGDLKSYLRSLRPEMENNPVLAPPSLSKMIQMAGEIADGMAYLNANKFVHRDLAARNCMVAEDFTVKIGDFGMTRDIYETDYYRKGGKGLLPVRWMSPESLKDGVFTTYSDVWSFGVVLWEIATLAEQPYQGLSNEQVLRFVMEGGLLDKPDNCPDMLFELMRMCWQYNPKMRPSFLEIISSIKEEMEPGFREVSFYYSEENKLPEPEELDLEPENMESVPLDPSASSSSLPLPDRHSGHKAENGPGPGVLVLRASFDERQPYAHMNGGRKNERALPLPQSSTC", "assay": "Kinase panel: IGF-1R", "assay_type": "biochemical, human/mammalian", "settings": "compound at 10 μM, read-out: % of activity respect of the control", "method": "as §1"}, "PKD1": {"target": "T2, PKD1 (Homo sapiens, UniProt Q15139)", "T2 sequence (Q15139 1-912)": "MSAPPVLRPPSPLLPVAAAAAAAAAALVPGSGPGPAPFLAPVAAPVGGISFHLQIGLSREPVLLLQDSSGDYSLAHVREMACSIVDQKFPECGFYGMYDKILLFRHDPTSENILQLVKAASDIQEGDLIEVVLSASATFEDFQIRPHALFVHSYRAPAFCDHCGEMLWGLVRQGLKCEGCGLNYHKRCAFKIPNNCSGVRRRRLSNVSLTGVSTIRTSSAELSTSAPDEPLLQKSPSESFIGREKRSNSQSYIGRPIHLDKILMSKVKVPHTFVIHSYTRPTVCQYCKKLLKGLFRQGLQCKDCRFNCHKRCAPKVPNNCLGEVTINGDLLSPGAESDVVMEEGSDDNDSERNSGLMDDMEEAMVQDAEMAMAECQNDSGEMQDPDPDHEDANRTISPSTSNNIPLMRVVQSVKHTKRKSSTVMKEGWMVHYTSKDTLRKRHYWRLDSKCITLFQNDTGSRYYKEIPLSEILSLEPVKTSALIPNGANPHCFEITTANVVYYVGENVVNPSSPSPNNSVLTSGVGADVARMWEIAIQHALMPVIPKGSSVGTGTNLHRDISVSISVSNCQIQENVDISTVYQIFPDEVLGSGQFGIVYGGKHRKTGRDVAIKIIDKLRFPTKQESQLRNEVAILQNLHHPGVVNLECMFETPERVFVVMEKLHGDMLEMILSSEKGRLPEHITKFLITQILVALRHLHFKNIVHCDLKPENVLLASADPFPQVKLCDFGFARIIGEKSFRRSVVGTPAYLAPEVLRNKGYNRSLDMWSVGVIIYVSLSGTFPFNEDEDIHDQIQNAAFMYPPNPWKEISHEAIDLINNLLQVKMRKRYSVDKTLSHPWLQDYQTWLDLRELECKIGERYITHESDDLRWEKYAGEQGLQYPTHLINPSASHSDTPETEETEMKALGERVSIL", "assay": "Kinase panel: PKD1", "assay_type": "biochemical, human/mammalian", "settings": "compound at 10 μM, read-out: % of activity respect of the control", "method": "as §1"}, "SRPK1": {"target": "SRPK1 (Homo sapiens, UniProt Q96SB4)", "sequence (Q96SB4 whole entry)": "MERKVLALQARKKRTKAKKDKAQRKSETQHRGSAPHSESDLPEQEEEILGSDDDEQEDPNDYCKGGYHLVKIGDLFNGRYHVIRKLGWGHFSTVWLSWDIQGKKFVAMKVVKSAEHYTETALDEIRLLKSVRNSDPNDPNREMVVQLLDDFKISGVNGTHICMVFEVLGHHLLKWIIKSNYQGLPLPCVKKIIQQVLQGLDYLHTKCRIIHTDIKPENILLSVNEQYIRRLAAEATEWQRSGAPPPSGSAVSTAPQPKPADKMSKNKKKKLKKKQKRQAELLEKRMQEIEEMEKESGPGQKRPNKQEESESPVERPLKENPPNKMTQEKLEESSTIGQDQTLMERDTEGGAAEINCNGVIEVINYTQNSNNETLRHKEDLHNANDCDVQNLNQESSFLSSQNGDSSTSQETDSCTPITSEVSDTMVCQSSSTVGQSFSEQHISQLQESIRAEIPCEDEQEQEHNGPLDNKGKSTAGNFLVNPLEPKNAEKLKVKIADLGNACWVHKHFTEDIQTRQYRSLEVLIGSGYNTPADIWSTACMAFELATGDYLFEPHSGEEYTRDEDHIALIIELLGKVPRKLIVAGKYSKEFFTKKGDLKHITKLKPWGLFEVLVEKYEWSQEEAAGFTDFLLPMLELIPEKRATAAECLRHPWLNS", "assay": "Kinase panel: SRPK1", "assay_type": "biochemical, human/mammalian", "settings": "compound at 10 μM, read-out: % of activity respect of the control", "method": "as §1"}, "EF2K": {"target": "EF2K (Homo sapiens, UniProt O00418)", "assay": "Kinase panel: EF2K", "assay_type": "biochemical, human/mammalian", "settings": "compound at 10 μM, read-out: % of activity respect of the control", "method": "as §1"}},
  "data": [
    {"smiles": "CC(c1ccccc1)n1c(=O)[nH]c2ncc(-c3ccc(F)cc3)nc21", "note": "(stereo not shown) [Compound 1]", "values": [
      {"measurement": "% of activity respect of the control", "setting": "PHK", "result": 103, "unit": "%"},
      {"measurement": "remaining activity at 10 µM", "setting": "IKKb", "result": 103, "unit": "%"},
      {"measurement": "CLint", "setting": "[1]", "result": "< 0.5", "unit": "mL/min/g"},
      {"measurement": "remaining activity at 10 µM", "setting": "NEK6", "result": 89, "unit": "%"},
      {"measurement": "remaining activity at 10 µM", "setting": "IGF-1R", "result": 122, "unit": "%"},
      {"measurement": "remaining activity at 10 µM", "setting": "PKD1", "result": 55, "unit": "%"},
      {"measurement": "remaining activity at 10 µM", "setting": "SRPK1", "result": 80, "unit": "%"},
      {"measurement": "remaining activity at 10 µM", "setting": "EF2K", "result": 93, "unit": "%"}
    ]},
    {"smiles": "O=c1[nH]c2ncc(-c3ccc(F)cc3)nc2n1CC1CC1", "note": "[Compound 10]", "values": [
      {"measurement": "% of activity respect of the control", "setting": "PHK", "result": 97, "unit": "%"},
      {"measurement": "remaining activity at 10 µM", "setting": "IKKb", "result": 105, "unit": "%"},
      {"measurement": "remaining activity at 10 µM", "setting": "NEK6", "result": 86, "unit": "%"},
      {"measurement": "remaining activity at 10 µM", "setting": "IGF-1R", "result": 85, "unit": "%"},
      {"measurement": "remaining activity at 10 µM", "setting": "PKD1", "result": 40, "unit": "%"},
      {"measurement": "remaining activity at 10 µM", "setting": "SRPK1", "result": 89, "unit": "%"},
      {"measurement": "remaining activity at 10 µM", "setting": "EF2K", "result": 92, "unit": "%"}
    ]},
    {"smiles": "O=c1[nH]c2ncc(-c3ccc(F)cc3)nc2n1C1CCCCC1", "note": "[Compound 12, 1-Cyclohexyl-6-(4-fluorophenyl)-1H-imidazo[4,5-b]pyrazin-2(3H)-one]", "values": [
      {"measurement": "% of activity respect of the control", "setting": "PHK", "result": 110, "unit": "%"},
      {"measurement": "remaining activity at 10 µM", "setting": "IKKb", "result": 94, "unit": "%"},
      {"measurement": "CLint", "setting": "[1]", "result": 0.7, "unit": "mL/min/g"},
      {"measurement": "remaining activity at 10 µM", "setting": "NEK6", "result": 94, "unit": "%"},
      {"measurement": "remaining activity at 10 µM", "setting": "IGF-1R", "result": 100, "unit": "%"},
      {"measurement": "remaining activity at 10 µM", "setting": "PKD1", "result": 60, "unit": "%"},
      {"measurement": "remaining activity at 10 µM", "setting": "SRPK1", "result": 88, "unit": "%"},
      {"measurement": "remaining activity at 10 µM", "setting": "EF2K", "result": 98, "unit": "%"}
    ]},
    {"smiles": "C[C@H](c1ccccc1)n1c(=O)[nH]c2ncc(-c3ccccc3)nc21", "note": "[Compound 14, (R)-6-Phenyl-1-(1-phenylethyl)-1H-imidazo[4,5-b]pyrazin-2(3H)-one]", "values": [
      {"measurement": "% of activity respect of the control", "setting": "PHK", "result": 94, "unit": "%"},
      {"measurement": "remaining activity at 10 µM", "setting": "IKKb", "result": 77, "unit": "%"},
      {"measurement": "remaining activity at 10 µM", "setting": "NEK6", "result": 80, "unit": "%"},
      {"measurement": "remaining activity at 10 µM", "setting": "IGF-1R", "result": 112, "unit": "%"},
      {"measurement": "remaining activity at 10 µM", "setting": "PKD1", "result": 44, "unit": "%"},
      {"measurement": "remaining activity at 10 µM", "setting": "SRPK1", "result": 75, "unit": "%"},
      {"measurement": "remaining activity at 10 µM", "setting": "EF2K", "result": 79, "unit": "%"}
    ]},
    {"smiles": "O=c1[nH]c2ncc(-c3ccccc3CO)nc2n1C1CCCCC1", "note": "[Compound 28]", "values": [
      {"measurement": "CLint", "setting": "[1]", "result": 2.4, "unit": "mL/min/g"}
    ]}
  ]
}
